Measured values taken from ChEMBL document CHEMBL1201862, “PubChem BioAssay data set” (2004).
The source made the active and inactive calls. No rule for the calls is given here.

Target: T1, Exodeoxyribonuclease V (Escherichia coli (strain K12), UniProt P04993+P07648+P08394)
T1 sequence (P04993 whole entry): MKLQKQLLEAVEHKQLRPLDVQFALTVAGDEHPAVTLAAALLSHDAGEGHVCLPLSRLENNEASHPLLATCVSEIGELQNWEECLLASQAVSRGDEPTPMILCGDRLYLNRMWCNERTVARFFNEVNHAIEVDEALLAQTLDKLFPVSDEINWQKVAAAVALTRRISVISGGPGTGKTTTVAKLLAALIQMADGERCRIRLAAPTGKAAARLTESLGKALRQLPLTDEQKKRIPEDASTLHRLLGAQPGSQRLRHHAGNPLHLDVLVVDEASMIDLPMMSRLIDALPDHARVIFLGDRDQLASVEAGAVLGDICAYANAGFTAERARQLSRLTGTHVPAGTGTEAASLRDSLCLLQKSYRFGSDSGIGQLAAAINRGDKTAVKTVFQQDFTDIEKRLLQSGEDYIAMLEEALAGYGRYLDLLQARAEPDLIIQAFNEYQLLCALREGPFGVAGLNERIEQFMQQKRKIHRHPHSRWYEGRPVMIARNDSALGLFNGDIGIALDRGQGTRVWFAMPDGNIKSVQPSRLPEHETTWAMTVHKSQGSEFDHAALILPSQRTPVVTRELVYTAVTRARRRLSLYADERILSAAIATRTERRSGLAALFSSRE
T1 sequence (P07648 whole entry): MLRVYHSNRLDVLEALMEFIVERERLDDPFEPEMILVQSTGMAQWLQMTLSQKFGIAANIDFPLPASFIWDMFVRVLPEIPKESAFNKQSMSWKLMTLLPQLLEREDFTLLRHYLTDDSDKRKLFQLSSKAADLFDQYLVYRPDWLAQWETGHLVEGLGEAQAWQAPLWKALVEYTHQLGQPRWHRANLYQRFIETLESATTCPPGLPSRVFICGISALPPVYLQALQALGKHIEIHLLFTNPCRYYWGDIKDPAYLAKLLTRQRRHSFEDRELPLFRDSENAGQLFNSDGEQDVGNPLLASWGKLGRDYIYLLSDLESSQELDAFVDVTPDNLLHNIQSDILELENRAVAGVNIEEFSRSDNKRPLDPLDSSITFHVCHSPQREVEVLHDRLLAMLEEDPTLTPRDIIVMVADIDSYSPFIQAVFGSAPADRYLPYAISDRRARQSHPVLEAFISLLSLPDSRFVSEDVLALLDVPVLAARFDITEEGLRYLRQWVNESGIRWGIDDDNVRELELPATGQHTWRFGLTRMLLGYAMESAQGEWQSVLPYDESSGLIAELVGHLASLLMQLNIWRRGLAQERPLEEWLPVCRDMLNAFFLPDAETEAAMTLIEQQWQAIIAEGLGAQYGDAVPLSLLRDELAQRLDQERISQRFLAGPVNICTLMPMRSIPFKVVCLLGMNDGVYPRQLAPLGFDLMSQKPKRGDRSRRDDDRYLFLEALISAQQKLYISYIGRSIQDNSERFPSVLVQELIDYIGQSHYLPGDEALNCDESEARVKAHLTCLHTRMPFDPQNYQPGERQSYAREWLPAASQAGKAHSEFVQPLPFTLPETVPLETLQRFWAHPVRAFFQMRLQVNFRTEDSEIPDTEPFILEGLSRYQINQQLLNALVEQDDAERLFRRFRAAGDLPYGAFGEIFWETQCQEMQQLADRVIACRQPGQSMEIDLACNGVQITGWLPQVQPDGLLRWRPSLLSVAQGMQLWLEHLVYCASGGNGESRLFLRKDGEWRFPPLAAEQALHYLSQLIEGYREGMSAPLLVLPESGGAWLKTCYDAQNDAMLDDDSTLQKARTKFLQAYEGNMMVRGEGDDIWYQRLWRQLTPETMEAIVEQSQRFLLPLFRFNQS
T1 sequence (P08394 whole entry): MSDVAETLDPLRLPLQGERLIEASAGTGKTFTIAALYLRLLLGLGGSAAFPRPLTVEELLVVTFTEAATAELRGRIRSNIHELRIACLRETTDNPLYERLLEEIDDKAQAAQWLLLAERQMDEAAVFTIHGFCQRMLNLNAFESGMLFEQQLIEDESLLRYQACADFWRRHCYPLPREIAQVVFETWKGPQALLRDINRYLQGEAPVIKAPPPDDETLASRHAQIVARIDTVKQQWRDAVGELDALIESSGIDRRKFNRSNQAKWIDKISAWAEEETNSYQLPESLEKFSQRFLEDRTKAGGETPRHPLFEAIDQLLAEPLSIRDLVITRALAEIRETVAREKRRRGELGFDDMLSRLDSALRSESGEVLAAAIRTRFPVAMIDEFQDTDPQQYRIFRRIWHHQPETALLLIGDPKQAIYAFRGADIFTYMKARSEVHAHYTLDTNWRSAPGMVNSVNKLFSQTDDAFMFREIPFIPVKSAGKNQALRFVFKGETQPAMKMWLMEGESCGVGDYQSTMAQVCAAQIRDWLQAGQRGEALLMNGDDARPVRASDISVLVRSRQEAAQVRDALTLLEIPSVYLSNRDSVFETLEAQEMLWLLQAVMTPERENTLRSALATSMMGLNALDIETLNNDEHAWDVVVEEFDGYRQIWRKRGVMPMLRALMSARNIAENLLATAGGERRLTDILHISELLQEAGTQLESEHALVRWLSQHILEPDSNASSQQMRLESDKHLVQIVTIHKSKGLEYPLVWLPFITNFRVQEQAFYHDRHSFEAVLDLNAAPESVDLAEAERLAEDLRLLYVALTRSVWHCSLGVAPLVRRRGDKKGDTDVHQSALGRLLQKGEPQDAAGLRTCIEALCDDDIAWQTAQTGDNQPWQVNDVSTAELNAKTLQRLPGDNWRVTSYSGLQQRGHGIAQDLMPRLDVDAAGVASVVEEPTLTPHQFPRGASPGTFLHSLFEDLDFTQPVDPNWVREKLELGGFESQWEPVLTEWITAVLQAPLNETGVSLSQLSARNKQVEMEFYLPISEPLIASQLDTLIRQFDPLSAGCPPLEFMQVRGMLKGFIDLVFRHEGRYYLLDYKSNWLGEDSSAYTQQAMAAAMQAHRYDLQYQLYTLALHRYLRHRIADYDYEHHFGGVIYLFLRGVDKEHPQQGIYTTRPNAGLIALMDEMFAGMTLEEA
Test: E. coli RecBCD inhibitors, dose response, counter-screen for AddAB inhibitor project, absorbance, V66 E. coli, mutant T4 phage (AID 492957)
Assay type: functional, cell-based, Escherichia coli str. K-12 substr. MG1655

Row | Structure (SMILES) | IC50
1 | CCSc1nsc(NC(=O)Nc2cccc(F)c2)n1 | > 119 µM (inactive)
2 | O=[N+]([O-])c1ccc(/C=N/n2cnc3ccccc32)s1 | > 119 µM (inactive)
